Reference: patent publication US20070248996A1, “Modulators of beta-amyloid peptide aggregation comprising D-amino acids” (Paraecis Pharmaceuticals, Inc., priority 1995, published 2007)
Where two headings read alike, the source gives them in different places.

Biological target: Aβ1-40 (Homo sapiens, UniProt P05067)
Assay type: biochemical
Settings: for ΔLag 3 μM: 3 μM test compound; for ΔLag 4 μM: 4 μM test compound; for ΔLag 0.5 μM / ΔLag 5.0 μM / ΔLag […]: Table VI; for ΔLag 0.5 μM: 0.5 μM test compound; for ΔLag 5.0 μM: 5.0 μM test compound; for ΔLag […]: […] test compound
Excerpt: The nucleation assay is employed to determine the ability of test compounds to alter (e.g. inhibit) the early events in formation of β-AP fibers from monomeric β-AP. Characteristic of a nucleated polymerization mechanism, a lag time is observed prior to nucleation, after which the peptide rapidly forms fibers as reflected in a linear rise in turbidity. The time delay before polymerization of β-AP monomer can be quantified as well as the extent of formation of insoluble fiber by light scattering (turbidity). Polymerization reaches equilibrium when the maximum turbidity reaches a plateau The turbidity of a solution of natural β-AP in the absence or presence of various concentrations of a β-amyloid modulator compound is determined by measuring the apparent absorbance of the solution at 405 nm (A405 nm) over time. The threshold of sensitivity for the measurement of turbidity is in the range of 15-20 μM β-AP. […] This assay can be performed using stirring or shaking to accelerate polymerization, thereby increasing the speed of the assay. Moreover the assay can be adapted to a 96-well plate format to screen multiple compounds.
HFIP-solubilized peptide is sonicated in a waterbath sonicator for 5 min at highest setting, then evaporated to dryness under a stream of argon. The peptide film is resuspended in anhydrous dimethylsulfoxide (DMSO) at a concentration of 6.9 mg/ml (25× concentration), sonicated for 5 min as before, then filtered through a 0.2 micron nylon syringe filter (VWR cat. No.28196-050). Test compounds are dissolved in DMSO at a 100× concentration. […] Ten microliters of the mixture is then added to the bottom of a well of a Corning Costar ultra low binding 96-well plate (Coming Costar, Cambridge Mass.; cat. No. 2500). Ninety microliters of water is added to the well, the plate is shaken on a rotary shaken at a constant speed at room temperature for 30 seconds, an additional 100 μl of 2× PTL buffer (20 mM NaH2PO4, 300 mM NaCl, pH 7.4) is added to the well, the plate is reshaken for 30 seconds and a baseline (t=0) turbidity reading is taken by measuring the apparent absorbance at 405 nm using a Bio-Rad Model 450 Microplate Reader. The plate is then returned to the shaker and shaken continuously for 5 hours. Turbidity readings are taken at 15 minute intervals.
β-amyloid aggregation in the absence of any modulators results in enhanced turbidity of the natural β-AP solution (i.e., an increase in the apparent absorbance at 405 nm over time). […]

[1] = Table III, modifying groups derived from bile acids, 5 μM test compound
[2] = Table IV, hydrophobic modifying groups, 5 μM test compound
[3] = Table I, 5 μM Aβ1-40, 5 μM test compound, ratio of lag time to control
[4] = Table II, second series, different stock of Aβ1-40, 2 μM test compound
[5] = Table II, second series, different stock of Aβ1-40
[6] = Table II, second series, different stock of Aβ1-40, 5 μM test compound

Chain of Aβ1-40 (P05067 672-711): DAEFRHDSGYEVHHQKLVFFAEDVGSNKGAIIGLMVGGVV

How did the “ΔLag 5 μM” value (Table IX, 5 μM test compound) turn out when Hydrocinnamoyl-d(FFVL)-oh [PPI-619] was run?
The value was 2.0.

With Hyodeoxycholyl-LVFFA-oh [PPI-520] as the substance, how does the “ΔLag 5 μM” value [1] read?
Its value is over 2.3.

And the “ΔLag 5 μM” value (Table IX, 5 μM test compound)?
The value was 1.5.

Which “ΔLag 5 μM” value [2] does the source give for Isobutanoyl-d(LVFFA)-nh2 [PPI-526] here?
Its value is 1.8.

With L-3-Phenyllactyl-d(AFFVL)-nh2 [PPI-608] as the substance, how does the “ΔLag 5 μM” value (Table IX, 5 μM test compound) read?
Its value is over 6.

Lithocholyl-LVFFA-oh [PPI-425] was tested. Which “ΔLag 5 μM” value [1] did it give?
The value was 1.4.

With “Pepstatin A [PPI-516, reference compound]” as the substance, how does the “ΔLag 5 μM” value (Table V, hydroxylated and oxygenated modifying groups, 5 μM test compound) read?
Its value is 1.6.

With Phenylacetyl-d(LVFF)-nh2 [PPI-480] as the substance, how does the “ΔLag 5 μM” value [2] read?
The value was 1.0.

With Triphenylacetyl-d(LVFF)-nh2 [PPI-485] as the substance, how does the “ΔLag 5 μM” value [2] read?
The value was 2.7.

With Ursodeoxycholyl-LVFFA-oh [PPI-522] as the substance, how does the “ΔLag 5 μM” value [1] read?
The value was over 2.3.

And the “ΔLag 5 μM” value (Table IX, 5 μM test compound)?
The value was 1.2.

For “cholyl-D-Leu-D-Val-D-Phe-D-Phe-D-Ala-NH2 [PPI-457]”, which “ΔLag 5 μM” value [3] is on record?
The value was over 10.

What about the “ΔLag 5 μM” value (Table IX, 5 μM test compound) of the same substance?
The value was over 6.

For “cholyl-D-Leu-D-Val-D-Phe-phenethylamide [PPI-494]”, which “ΔLag 2 μM” value [4] is on record?
The value was 1.0.

And the “ΔLag 3 μM” value [5]?
The value was 1.3.

And the “ΔLag 4 μM” value [5]?
Its value is 1.4.

And the “ΔLag 5 μM” value [6]?
Its value is 1.4.

And the “ΔLag 5 μM” value [2]?
Its value is 1.5.

And the “ΔLag 5 μM” value (Table IX, 5 μM test compound)?
The value was 1.3.

Which “ΔLag 2 μM” value (Table I, 5 μM Aβ1-40, 2 μM test compound, ratio of lag time with compound to lag time of control) does the source give for “cholyl-Leu-Val-Phe-Phe-Ala-NH2 [PPI-382]” here?
The value was over 10.

And the “ΔLag 5 μM” value [3]?
Its value is over 12.

Which results are given for h-d(AAAAA)-nh2 [PPI-473]?
ΔLag 3 μM [5]: 1.0; ΔLag 4 μM [5]: 1.0; ΔLag 5 μM [6]: 1.0

h-d(AFFFL)-nh2 [PPI-598] was tested. Which “ΔLag 0.5 μM” value did it give?
Its value is 1.3.

What about the “ΔLag 5.0 μM” value of the same substance?
The value was 6.3.

And the “ΔLag […]” value?
Its value is 2.0.

What about the “ΔLag 5 μM” value (Table X, 5 μM test compound) of the same substance?
The value was over 6.

For h-d(AFFLL)-nh2 [PPI-577], which “ΔLag 0.5 μM” value is on record?
Its value is 1.0.

And the “ΔLag 5.0 μM” value?
Its value is over 7.5.

And the “ΔLag […]” value?
Its value is 1.3.

And the “ΔLag 5 μM” value (Table X, 5 μM test compound)?
The value was over 6.

What does the source list for h-d(AFFVL)-nh2 [PPI-500]?
ΔLag 0.5 μM: 1.0; ΔLag 5.0 μM: >6.0; ΔLag […]: 1.8

h-d(FFFFL)-nh2 [PPI-589] was tested. Which “ΔLag 0.5 μM” value did it give?
Its value is 1.5.

And the “ΔLag 5.0 μM” value?
The value was over 7.5.

And the “ΔLag […]” value?
Its value is 3.3.

And the “ΔLag 5 μM” value (Table X, 5 μM test compound)?
Its value is over 6.

How did the “ΔLag 0.5 μM” value turn out when h-d(FFFLV)-nh2 [PPI-533] was run?
The value was 1.5.

And the “ΔLag 5.0 μM” value?
Its value is over 7.5.

What about the “ΔLag […]” value of the same substance?
The value was 3.8.

And the “ΔLag 5 μM” value (Table X, 5 μM test compound)?
Its value is over 6.

Which results are given for h-d(FFFVL)-nh2 [PPI-579]?
ΔLag 0.5 μM: 1.8; ΔLag 5.0 μM: >7.5; ΔLag […]: 6.3; ΔLag 5 μM (Table X, 5 μM test compound): >6

Which results are given for h-d(LFFVL)-nh2 [PPI-578]?
ΔLag 0.5 μM: 2.5; ΔLag 5.0 μM: >7.5; ΔLag […]: 4.8; ΔLag 5 μM (Table X, 5 μM test compound): 3.2

With h-d(LV(IodoY)FA)-nh2 [PPI-504] as the substance, how does the “ΔLag 5.0 μM” value read?
Its value is 2.2.

And the “ΔLag 5 μM” value (Table X, 5 μM test compound)?
The value was 1.4.

Which results are given for h-d(LVFA)-oh [PPI-479]?
ΔLag 2 μM [4]: 1.1; ΔLag 3 μM [5]: 0.9; ΔLag 4 μM [5]: 1.0; ΔLag 5 μM [6]: 1.1

Which “ΔLag 2 μM” value [4] does the source give for h-d(LVFF)-nh2 [PPI-471] here?
Its value is 2.6.

And the “ΔLag 3 μM” value [5]?
Its value is 2.6.

What about the “ΔLag 4 μM” value [5] of the same substance?
The value was 2.6.

And the “ΔLag 5 μM” value [6]?
Its value is 2.4.

h-d(LVYFA)-nh2 [PPI-503] was tested. Which “ΔLag 5.0 μM” value did it give?
Its value is 1.2.

h-d(VF)-PEA [PPI-493] was tested. Which “ΔLag 2 μM” value [4] did it give?
The value was 1.0.

And the “ΔLag 3 μM” value [5]?
The value was 1.0.

And the “ΔLag 4 μM” value [5]?
The value was 1.0.

And the “ΔLag 5 μM” value [6]?
Its value is 1.9.

h-d(VF)-PEA [PPI-497] was tested. Which “ΔLag 5 μM” value [2] did it give?
Its value is 1.0.

h-d(VFF)-oh [PPI-502] was tested. Which “ΔLag 5 μM” value [2] did it give?
The value was 1.0.

With trans-Cinnamoyl-d(LVFF)-nh2 [PPI-490] as the substance, how does the “ΔLag 5 μM” value [2] read?
The value was 1.0.
